Consider one substance from patent US10370436B2, “Anti-pseudomonas Psl binding molecules and uses thereof” (priority 2011, dated 2019).

Assay [1] deals with non-mucoid P. aeruginosa strains from clinically relevant O-antigen serotypes. Nature of the assay: OPK assay, non-mucoid clinical isolates. The assay is classed as cell-based, Pseudomonas aeruginosa. To be noted: FIG. 2C. As to the method:
(§1) This example describes the evaluation of prioritized human IgG1 antibodies to promote OPK of P. aeruginosa. […] OPK assays were performed as described in (DiGiandomenico, A., et al., Infect Immun 72, 7012-7021 (2004)), with modifications. Briefly, assays were performed in 96-well plates using 0.025 ml of each OPK component; P. aeruginosa strains; diluted baby rabbit serum; differentiated HL-60 cells; and monoclonal antibody. In some OPK assays, luminescent P. aeruginosa strains, which were constructed as described (Choi, K. H., et al., Nat Methods 2, 443-448 (2005)), were used. Luminescent OPK assays were performed as described above but with determination of relative luciferase units (RLUs) using a Perkin Elmer ENVISION Multilabel plate reader (Perkin Elmer).
The ability of Cam-003 to mediate OPK activity against representative non-mucoid strains from clinically relevant O-antigen serotypes and against mucoid P. aeruginosa strains which were derived from cystic fibrosis patients was evaluated.

The test system of assay [2] is P. aeruginosa 6077 (O11-cytotoxic). Nature of the assay: P. aeruginosa corneal infection (keratitis) model. The assay is classed as in vivo, mice. The settings on record: versus negative control-treated animals, 24 hours after infection. As to the method: (§2) FIG. 8 (A-G): Anti-Psl monoclonal antibodies Cam-003 and WapR-004 are active in a P. aeruginosa keratitis model and thermal injury model. Mice were treated with a control IgG1 antibody or Cam-003 at 45 mg/kg (A, B) or 15 mg/kg (C, D) or PBS or a control IgG1 antibody or Cam-003 at 45 mg/kg or WapR-004 at 45 mg/kg or 15 mg/kg or 5 mg/kg (F, G) 24 hours prior to infection with 6077 (O11-cytotoxic—2×10^6 CFU). Immediately before infection, three 1 mm scratches were made on the left cornea of each animal followed by topical application of P. aeruginosa in a 5 μl inoculum. 24 hours after infection, the corneal pathology scores were calculated followed by removal of the eye for determination of viable CFU. Differences in pathology scores and viable CFU were determined by the Mann-Whitney U-test. (A) P=0.0001, (B) P<0.0001, (C) P=0.0003, (D) P=0.0015. (F) and (G) Cam-003 (45 mg/kg) vs. WapR-004 (45 mg/kg): P=0.018; Cam-003 (45 mg/kg) vs. WapR-004 (15 mg/kg): P=0.0025; WapR-004 (45 mg/kg) vs. WapR-004 (15 mg/kg): P=0.1331; WapR-004 (5 mg/kg) vs. Ctrl: P<0.0001. Results are representative of five independent experiments. (E) Survival analysis from Cam-003 and R347 treated CF-1 mice in a P. aeruginosa thermal injury model after 6077 infection (2×10^5 CFU) (log-rank: R347 vs. Cam-003 15 mg/kg, P=0.0094; R347 vs. Cam-003 5 mg/kg, P=0.0017). […]

The test system of assay [3] is luminescent P. aeruginosa serogroup 05 strain (PAO1.lux). Description: Opsonophagocytosis killing (OPK) assay, PAO1.lux. The assay is classed as cell-based, Pseudomonas aeruginosa. As to the method:
as §1
This example describes two series of experiments evaluating the ability of PMB-mAb conjugates to promote OPK of P. aeruginosa. In the first experiments (FIGS. 15A-B), conjugate-mediated OPK activity by human HL-60 neutrophil cell line in the presence of rabbit complement was evaluated using P. aeruginosa strains expressing bacterial luciferase as described in Example 2. R347 was used as a negative control in these experiments. […] In the second series of experiments, reduction in luminescence following 2 h incubation relative to control lacking mAb was used to determine % killing.

Assay [4] has as its system Psl (enriched carbohydrate purified from PAO1ΔwbpL/algD/pelA). Description: Psl capture binding assay (FORTEBIO OCTET 384). More on the design: species or system Pseudomonas aeruginosa. To be noted: FIG. 3K. As to the method:
To confirm that all of the antibodies bound to the same antigen, a Psl capture binding assay was performed using a FORTEBIO® OCTET® 384 instrument as described above. The antigen was proteinase K-treated enriched carbohydrate purified from PAO1ΔwbpL/algD/pelA (O-antigen-, alginate- and Pel exopolysaccharide-deficient). Individual antibodies were bound to aminopropylsilane biosensors followed by blocking and the addition of the enriched carbohydrate antigen. After washing to remove unbound antigen, binding of unlabelled mAbs to captured antigen was assessed.

Assay [5] concerns P. aeruginosa strains PAO1, 33356, 6294, 6077, 6206. Description: Acute pneumonia model, organ burden. The assay is classed as in vivo, BALB/c mice. As to the method: Antibodies or PBS were administered 24 hours before infection in each model. P. aeruginosa acute pneumonia, keratitis, and thermal injury infection models were performed as described (DiGiandomenico, A., et al., Proc Natl Acad Sci USA 104, 4624-4629 (2007)), with modifications. In the acute pneumonia model, BALB/c mice (The Jackson Laboratory) were infected with P. aeruginosa strains suspended in a 0.05 ml inoculum. In the thermal injury model, CF-1 mice (Charles River) received a 10% total body surface area burn with a metal brand heated to 92° C. for 10 seconds. Animals were infected subcutaneously with P. aeruginosa strain 6077 at the indicated dose. For organ burden experiments, acute pneumonia was induced in mice followed by harvesting of lungs, spleens, and kidneys 24 hours post-infection for determination of CFU.

In assay [6] the test system is P. aeruginosa strain 6077. Description: P. aeruginosa thermal injury model. The class given is in vivo, CF-1 mice. The settings on record: 15 and 5 mg/kg; versus antibody-treated control; FIG. 8E. As to the method:
as §2

With “Cam-003: human IgG1 anti-Psl monoclonal antibody, VH SEQ ID NO: 1 and VL SEQ ID NO: 2”, the OPK activity result in assay [1] was “mediated potent OPK of all non-mucoid clinical isolates tested”. For the same substance, in assay [2], the “bacterial counts in total eye homogenates” value is listed as “reduced bacterial counts”. The corneal pathology entry in assay [2] (FIGS. 8A-D, F-G) was “significantly less pathology”. The substance also showed an OPK EC50 in assay [3] (FIG. 9A) of 0.06 µg/mL. In assay [3] (human IgG1 antibodies, differentiated HL-60 cells, baby rabbit serum, FIG. 2A), the “OPK activity (concentration dependent killing)” value is recorded as “superior OPK activity”. For the same substance, the “reactivity of unlabelled mAb to captured Psl” value in assay [4] is reported as “reacted”. Further, the “capture of Psl antigen by biosensor-bound antibody” value in assay [4] (antibody bound to aminopropylsilane biosensors) is on record as “capable of capturing antigen”. The “dissemination to the spleen and kidneys” value in assay [5] (PAO1, 6294 and 6077, FIGS. 7A, 7C, 7D) was “marked effect in reducing dissemination to the spleen and kidneys”. The “lung burden (viable CFU)” value in assay [5] (PAO1, 33356, 6294, 6077, 24 hours post-infection, FIGS. 7A-D) is given as “effective at reducing P. aeruginosa lung burden against all four strains tested”. Further, the “lung burden, dose dependence” value in assay [5] (cytotoxic strain 6077, FIG. 7D) was “the low dose was as effective as the higher dose”. Further, in assay [6], the “protection (survival)” value is given as “significant protection”.
